What all share (assay type): cell-based
One assay has as its target T1, glucagon receptor (Homo sapiens, UniProt P47871).
T1 construct: expressed in transfected cells; host or cells: HEK293
Nature of the assay: cAMP synthesis functional assay (firefly luciferase reporter in HEK293 cells), glucagon receptor. The settings on record: Table 1; for Glucagon Receptor relative activity: relative to the native hormone of the indicated receptor. Background: In a reporter assay the amount or activity of a reporter protein is the signal.

A further assay concerns the target T2, GLP-1 receptor (Homo sapiens, UniProt P43220).
T2 construct: expressed in transfected cells; host or cells: HEK293
Nature of the assay: cAMP synthesis functional assay (firefly luciferase reporter in HEK293 cells), GLP-1 receptor. The settings on record: Table 1; for GLP-1 Receptor relative activity: relative to the native hormone of the indicated receptor.

For a further assay, the target named is T3, GIP receptor (Homo sapiens, UniProt P48546).
T3 construct: expressed in transfected cells; host or cells: HEK293
T3 sequence (P48546 22-466): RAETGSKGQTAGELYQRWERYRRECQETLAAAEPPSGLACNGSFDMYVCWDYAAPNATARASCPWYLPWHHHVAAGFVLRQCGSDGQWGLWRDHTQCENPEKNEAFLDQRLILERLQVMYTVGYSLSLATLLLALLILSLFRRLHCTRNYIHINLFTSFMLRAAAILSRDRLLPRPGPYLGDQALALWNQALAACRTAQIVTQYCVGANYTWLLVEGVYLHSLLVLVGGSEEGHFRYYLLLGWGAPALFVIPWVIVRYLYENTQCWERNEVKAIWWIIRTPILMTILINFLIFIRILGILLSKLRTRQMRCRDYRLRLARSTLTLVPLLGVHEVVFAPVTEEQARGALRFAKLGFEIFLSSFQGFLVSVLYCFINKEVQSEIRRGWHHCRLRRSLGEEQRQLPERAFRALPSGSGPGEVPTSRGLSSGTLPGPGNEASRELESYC
The assay is described as follows: cAMP synthesis functional assay (firefly luciferase reporter in HEK293 cells), GIP receptor. The settings on record: Table 1; for GIP Receptor relative activity: relative to the native hormone of the indicated receptor.

Where a SMILES comes first, the peptide text is derived from it. Bridges are numbered along the chain shown (N, C = ends).

T1 sequence (P47871 26-477): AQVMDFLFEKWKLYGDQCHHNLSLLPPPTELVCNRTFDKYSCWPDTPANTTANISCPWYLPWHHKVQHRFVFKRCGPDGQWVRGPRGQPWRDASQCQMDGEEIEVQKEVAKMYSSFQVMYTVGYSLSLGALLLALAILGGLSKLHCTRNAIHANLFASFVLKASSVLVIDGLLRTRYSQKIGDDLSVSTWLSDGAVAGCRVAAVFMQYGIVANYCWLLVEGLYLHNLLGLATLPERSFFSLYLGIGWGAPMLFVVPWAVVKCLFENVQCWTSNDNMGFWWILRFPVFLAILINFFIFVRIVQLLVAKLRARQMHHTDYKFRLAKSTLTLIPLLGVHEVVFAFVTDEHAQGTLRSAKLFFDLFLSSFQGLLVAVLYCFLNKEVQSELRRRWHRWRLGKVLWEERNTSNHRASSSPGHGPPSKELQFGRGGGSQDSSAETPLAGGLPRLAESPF
T2 sequence (P43220 24-463, species assumed): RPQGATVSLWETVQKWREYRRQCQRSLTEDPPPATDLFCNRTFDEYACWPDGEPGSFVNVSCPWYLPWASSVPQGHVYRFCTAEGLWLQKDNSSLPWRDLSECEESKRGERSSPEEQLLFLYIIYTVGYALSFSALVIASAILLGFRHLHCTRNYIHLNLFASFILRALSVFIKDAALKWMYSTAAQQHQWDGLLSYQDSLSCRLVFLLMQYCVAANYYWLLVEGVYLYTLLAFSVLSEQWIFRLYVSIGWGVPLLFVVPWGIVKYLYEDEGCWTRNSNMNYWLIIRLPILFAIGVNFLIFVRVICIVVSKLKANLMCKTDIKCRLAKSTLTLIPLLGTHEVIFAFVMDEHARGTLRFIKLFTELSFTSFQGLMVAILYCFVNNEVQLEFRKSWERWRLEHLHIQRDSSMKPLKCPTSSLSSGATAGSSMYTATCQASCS

For `CC[C@H](C)[C@H](NC(=O)[C@H](Cc1ccccc1)NC(=O)[C@H](CCC(=O)O)NC(=O)[C@@H]1CCCCNC(=O)CC[C@H](NC(=O)[C@H](CC(=O)O)NC(=O)[C@H](CC(C)C)NC(=O)[C@H](Cc2ccc(O)cc2)NC(=O)[C@H](CCCCN)NC(=O)[C@H](CO)NC(=O)[C@H](Cc2ccc(O)cc2)NC(=O)[C@H](CC(=O)O)NC(=O)[C@H](CO)NC(=O)[C@@H](NC(=O)[C@H](Cc2ccccc2)NC(=O)[C@@H](NC(=O)CNC(=O)[C@H](CCC(N)=O)NC(=O)[C@H](CO)NC(=O)[C@@H](N)Cc2ccc(O)cc2)[C@@H](C)O)[C@@H](C)O)C(=O)N[C@@H](CCC(N)=O)C(=O)N[C@@H](C)C(=O)N[C@@H](C)C(=O)N1)C(=O)N[C@@H](C)C(=O)N[C@@H](Cc1c[nH]c2ccccc12)C(=O)N[C@@H](CC(C)C)C(=O)N[C@@H](CCSC)C(=O)N[C@@H](CC(N)=O)C(=O)NCC(=O)NCC(=O)N1CCC[C@H]1C(=O)N[C@@H](CO)C(=O)N[C@@H](CO)C(=O)NCC(=O)N[C@@H](C)C(=O)N1CCC[C@H]1C(=O)N1CCC[C@H]1C(=O)N1CCC[C@H]1C(=O)N[C@@H](CO)C(N)=O` [mt-120] (H-YSQGTFTSDYSKYLDEQAAKEFIAWLMNGGPSSGAPPPS-NH2; lactam 16-20; N-terminus assumed), the “Glucagon Receptor relative activity” value at glucagon receptor was found to be 259.46%. Also, the “GLP-1 Receptor relative activity” value at GLP-1 receptor turned out to be 13.45%. Besides, the “GIP Receptor relative activity” value on GIP receptor is on record as 1.81%.

With `CC[C@H](C)[C@H](NC(=O)[C@H](CO)NC(=O)[C@H](Cc1ccc(O)cc1)NC(=O)[C@H](CC(=O)O)NC(=O)[C@H](CO)NC(=O)[C@@H](NC(=O)[C@H](Cc1ccccc1)NC(=O)[C@@H](NC(=O)CNC(=O)[C@H](CCC(N)=O)NC(=O)[C@H](CO)NC(=O)[C@@H](N)Cc1c[nH]cn1)[C@@H](C)O)[C@@H](C)O)C(=O)N[C@@H](Cc1ccc(O)cc1)C(=O)N[C@@H](CCSC)C(=O)N[C@@H](CC(=O)O)C(=O)N[C@H]1CCC(=O)NCCCC[C@@H](C(=O)N[C@@H](CC(=O)O)C(=O)N[C@@H](Cc2ccccc2)C(=O)N[C@H](C(=O)N[C@@H](CC(N)=O)C(=O)N[C@@H](Cc2c[nH]c3ccccc23)C(=O)N[C@@H](CC(C)C)C(=O)N[C@@H](CC(C)C)C(=O)N[C@@H](C)C(=O)N[C@@H](CCC(N)=O)C(N)=O)C(C)C)NC(=O)[C@H](CCC(N)=O)NC(=O)[C@H](Cc2c[nH]cn2)NC(=O)[C@H]([C@@H](C)CC)NC1=O` [mt-124] (H-HSQGTFTSDYSIYMDEIHQKDFVNWLLAQ-NH2; lactam 16-20; N-terminus assumed), the “Glucagon Receptor relative activity” value at glucagon receptor is reported as 8.64%. Also, on GLP-1 receptor (GLP-1 Receptor EC50, nM), a half-maximal response (EC50) required 0.04 nM. At GLP-1 receptor, the “GLP-1 Receptor relative activity” value was 100.00%. Also, the “GIP Receptor relative activity” value on GIP receptor came out at 0.95%.

For `CC[C@H](C)[C@H](NC(=O)[C@H](CO)NC(=O)[C@H](Cc1ccc(O)cc1)NC(=O)[C@H](CC(=O)O)NC(=O)[C@H](CO)NC(=O)[C@@H](NC(=O)[C@H](Cc1ccccc1)NC(=O)[C@@H](NC(=O)CNC(=O)[C@H](CCC(N)=O)NC(=O)[C@H](CO)NC(=O)[C@@H](N)Cc1ccc(O)cc1)[C@@H](C)O)[C@@H](C)O)C(=O)N[C@@H](Cc1ccc(O)cc1)C(=O)N[C@@H](CCSC)C(=O)N[C@@H](CC(=O)O)C(=O)N[C@H]1CCC(=O)NCCCC[C@@H](C(=O)N[C@@H](CC(=O)O)C(=O)N[C@@H](Cc2ccccc2)C(=O)N[C@H](C(=O)N[C@@H](CC(N)=O)C(=O)N[C@@H](Cc2c[nH]c3ccccc23)C(=O)N[C@@H](CC(C)C)C(=O)N[C@@H](CC(C)C)C(=O)N[C@@H](C)C(=O)N[C@@H](CCC(N)=O)C(N)=O)C(C)C)NC(=O)[C@H](CCC(N)=O)NC(=O)[C@H](Cc2c[nH]cn2)NC(=O)[C@H]([C@@H](C)CC)NC1=O` [mt-125] (H-YSQGTFTSDYSIYMDEIHQKDFVNWLLAQ-NH2; lactam 16-20; N-terminus assumed), the “Glucagon Receptor relative activity” value at glucagon receptor worked out at 9.06%. Besides, the “GLP-1 Receptor relative activity” value on GLP-1 receptor is 3.17%. In addition, the “GIP Receptor relative activity” value at GIP receptor is on record as 19.64%.

For the molecule `CC(C)C[C@H](NC(=O)[C@H](CC(C)C)NC(=O)[C@H](Cc1c[nH]c2ccccc12)NC(=O)[C@H](CC(N)=O)NC(=O)[C@@H](NC(=O)[C@H](Cc1ccccc1)NC(=O)[C@H](CCC(=O)O)NC(=O)[C@@H]1CCCCNC(=O)CC[C@H](NC(=O)[C@H](CC(=O)O)NC(=O)[C@H](CC(C)C)NC(=O)[C@H](Cc2ccc(O)cc2)NC(=O)[C@H](CCCCN)NC(=O)[C@H](CO)NC(=O)[C@H](Cc2ccc(O)cc2)NC(=O)[C@H](CC(=O)O)NC(=O)[C@H](CO)NC(=O)[C@@H](NC(=O)[C@H](Cc2ccccc2)NC(=O)[C@@H](NC(=O)CNC(=O)[C@H](CCC(N)=O)NC(=O)[C@H](CO)NC(=O)[C@@H](N)Cc2ccc(O)cc2)[C@@H](C)O)[C@@H](C)O)C(=O)N[C@@H](CCC(N)=O)C(=O)N[C@@H](C)C(=O)N[C@@H](C)C(=O)N1)C(C)C)C(=O)N[C@@H](C)C(=O)NCC(=O)NCC(=O)N1CCC[C@H]1C(=O)N[C@@H](CO)C(=O)N[C@@H](CO)C(=O)NCC(=O)N[C@@H](C)C(=O)N1CCC[C@H]1C(=O)N1CCC[C@H]1C(=O)N1CCC[C@H]1C(=O)N[C@@H](CO)C(N)=O` [mt-127] (H-YSQGTFTSDYSKYLDEQAAKEFVNWLLAGGPSSGAPPPS-NH2; lactam 16-20; N-terminus assumed), a half-maximal response at glucagon receptor (Glucagon Receptor EC50, nM) (EC50) required 0.044 nM. The “Glucagon Receptor relative activity” value at glucagon receptor was determined as 718.39%. On GLP-1 receptor, the “GLP-1 Receptor relative activity” value amounted to 87.75%. Moreover, at GIP receptor, the “GIP Receptor relative activity” value is 10.51%.

As for `CC[C@H](C)[C@H](NC(=O)[C@H](Cc1ccccc1)NC(=O)[C@H](CC(=O)O)NC(=O)[C@@H]1CCCCNC(=O)CC[C@H](NC(=O)[C@H](CC(=O)O)NC(=O)[C@H](CC(C)C)NC(=O)[C@H](Cc2ccc(O)cc2)NC(=O)[C@H](CCCCN)NC(=O)[C@H](CO)NC(=O)[C@H](Cc2ccc(O)cc2)NC(=O)[C@H](CC(=O)O)NC(=O)[C@H](CO)NC(=O)[C@@H](NC(=O)[C@H](Cc2ccccc2)NC(=O)[C@@H](NC(=O)CNC(=O)[C@H](CCC(N)=O)NC(=O)[C@H](CO)NC(=O)[C@@H](N)Cc2c[nH]cn2)[C@@H](C)O)[C@@H](C)O)C(=O)N[C@@H]([C@@H](C)CC)C(=O)N[C@@H](Cc2c[nH]cn2)C(=O)N[C@@H](CCC(N)=O)C(=O)N1)C(=O)N[C@@H](C)C(=O)N[C@@H](Cc1c[nH]c2ccccc12)C(=O)N[C@@H](CC(C)C)C(=O)N[C@@H](CCSC)C(=O)N[C@@H](CC(N)=O)C(=O)NCC(=O)NCC(=O)N1CCC[C@H]1C(=O)N[C@@H](CO)C(=O)N[C@@H](CO)C(=O)NCC(=O)N[C@@H](C)C(=O)N1CCC[C@H]1C(=O)N1CCC[C@H]1C(=O)N1CCC[C@H]1C(=O)N[C@@H](CO)C(N)=O` [mt-128] (H-HSQGTFTSDYSKYLDEIHQKDFIAWLMNGGPSSGAPPPS-NH2; lactam 16-20; N-terminus assumed), the “Glucagon Receptor relative activity” value on glucagon receptor amounted to 11.13%. In addition, the “GLP-1 Receptor relative activity” value on GLP-1 receptor is 33.33%. For the same molecule, the midpoint of the response on GIP receptor (GIP Receptor EC50, nM), the EC50, lay at 14.6 nM. On GIP receptor, the “GIP Receptor relative activity” value came out at 0.42%.

Turning to `CC[C@H](C)[C@H](NC(=O)[C@H](Cc1ccccc1)NC(=O)[C@H](CC(=O)O)NC(=O)[C@@H]1CCCCNC(=O)CC[C@H](NC(=O)[C@H](CC(=O)O)NC(=O)[C@H](CC(C)C)NC(=O)[C@H](Cc2ccc(O)cc2)NC(=O)[C@H](CCCCN)NC(=O)[C@H](CO)NC(=O)[C@H](Cc2ccc(O)cc2)NC(=O)[C@H](CC(=O)O)NC(=O)[C@H](CO)NC(=O)[C@@H](NC(=O)[C@H](Cc2ccccc2)NC(=O)[C@@H](NC(=O)CNC(=O)[C@H](CCC(N)=O)NC(=O)[C@H](CO)NC(=O)[C@@H](N)Cc2ccc(O)cc2)[C@@H](C)O)[C@@H](C)O)C(=O)N[C@@H]([C@@H](C)CC)C(=O)N[C@@H](Cc2c[nH]cn2)C(=O)N[C@@H](CCC(N)=O)C(=O)N1)C(=O)N[C@@H](C)C(=O)N[C@@H](Cc1c[nH]c2ccccc12)C(=O)N[C@@H](CC(C)C)C(=O)N[C@@H](CCSC)C(=O)N[C@@H](CC(N)=O)C(=O)NCC(=O)NCC(=O)N1CCC[C@H]1C(=O)N[C@@H](CO)C(=O)N[C@@H](CO)C(=O)NCC(=O)N[C@@H](C)C(=O)N1CCC[C@H]1C(=O)N1CCC[C@H]1C(=O)N1CCC[C@H]1C(=O)N[C@@H](CO)C(N)=O` [mt-129] (H-YSQGTFTSDYSKYLDEIHQKDFIAWLMNGGPSSGAPPPS-NH2; lactam 16-20; N-terminus assumed), the “Glucagon Receptor relative activity” value on glucagon receptor came to 17.34%. Besides, the “GLP-1 Receptor relative activity” value on GLP-1 receptor stood at 1.12%. For the same molecule, at GIP receptor, the “GIP Receptor relative activity” value was found to be 2.06%.

(Values after patent publication US9062124B2, “GIP-based mixed agonists for treatment of metabolic disorders and obesity” (priority 2008, dated 2015).)
